Data reported in ChEMBL document CHEMBL4330156, “Amides and Flavonoids from the Fruit and Leaf Extracts of Melodorum siamensis” (J Nat Prod, 2019).
Activity calls are given as the source filed them. No cut-off for these calls is given here.

Biological target: Transcription factor p65 (Mus musculus) (UniProt Q04207)
Experiment: Inhibition of TNFalpha/IL-1beta-induced NFkB p65 translocation from cytosol to nucleus in mouse MIN6 cells at 50 uM after 30 mins by immunofluorescence based high content imaging analysis
Assay type: cell-based

Sequence of Transcription factor p65 (Mus musculus) (Q04207 whole entry): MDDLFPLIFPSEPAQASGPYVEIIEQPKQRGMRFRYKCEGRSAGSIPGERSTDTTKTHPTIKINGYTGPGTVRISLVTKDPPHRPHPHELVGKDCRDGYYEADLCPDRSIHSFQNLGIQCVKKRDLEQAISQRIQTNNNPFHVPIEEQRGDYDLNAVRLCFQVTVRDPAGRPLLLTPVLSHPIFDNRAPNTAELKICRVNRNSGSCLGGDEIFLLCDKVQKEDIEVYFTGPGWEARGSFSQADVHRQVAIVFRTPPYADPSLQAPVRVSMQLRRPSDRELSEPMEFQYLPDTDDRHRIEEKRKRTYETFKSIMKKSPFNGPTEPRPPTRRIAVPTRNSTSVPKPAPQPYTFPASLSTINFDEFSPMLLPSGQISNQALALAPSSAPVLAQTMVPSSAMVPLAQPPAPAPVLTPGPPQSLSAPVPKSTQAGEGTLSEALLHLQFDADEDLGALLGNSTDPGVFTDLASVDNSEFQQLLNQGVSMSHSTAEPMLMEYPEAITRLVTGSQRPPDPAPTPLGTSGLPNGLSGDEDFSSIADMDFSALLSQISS

inhibition: Active
SMILES: COc1cc(O)cc(O)c1C(=O)/C=C/c1ccc(O)cc1
